Laboratory results: US10519162B2, “6,7-dihydropyrazolo[1,5-α]pyrazin-4(5H)-one compounds and their use as negative allosteric modulators of mGluR2 receptors” (Janssen Pharmaceutica NV, priority 2014, dated 2019)
Read-outs that look alike come from different tables or passages of the source.

How the values were obtained:
rats = test: Reversal of the effect of the mGluR2 PAM JNJ-42153605-induced inhibition of scopolamine-induced hyperlocomotion (SCOP JNJ-42153605); format: in vivo, rat; details: for ED50: Rattus norvegicus, PO (oral route), rats, reversal criterion total distance >1500 cm
Experimental: 2) Reversal of the Effect of the mGluR2 PAM JNJ-42153605-Induced Inhibition of Scopolamine-Induced Hyperlocomotion Apparatus
Motor activity was measured in microprocessor-based motor activity arenas (closed gray PVC cylinders with a height of 39 cm and a diameter of 31 cm). Each arena was placed on an infrared LED (8×8 LEDs) lit box (white PVC squared box; 40×40 cm^2; height 12.5 cm. An infrared-sensitive tube camera and a white light source were mounted to the ceiling above the observation chamber to track the animal. The total distance traveled (cm) was recorded and analyzed using the Noldus Ethovision XT Video Tracking System (Version 7.0.418; Noldus, Wageningen, The Netherlands). The intensity of the light within the activity cages (measured in the centre at the level of the floor) ranged between 4 and 8 LUX.
The rats were pretreated with test compound or vehicle at 60 min before the start of the activity recordings and placed into individual cages. The rats were challenged with JNJ-42153605 (3-(cyclopropylmethyl)-7-(4-phenylpiperidin-1-yl)-8-(trifluoromethyl)[1,2,4]triazolo[4,3-a]pyridine; WO2010/130424; Cid et al. J. Med. Chem. 2012, 55, 8770-8789) (20 mg/kg, i.v.) 30 min before the start of the activity recording combined with scopolamine (0.16 mg/kg, i.v.) just before the start of the activity measurements. Immediately after the injection of scopolamine, the rats were placed into the activity monitors and total distance travelled over the first 30 min was measured.
Solvent-Pretreated Control Rats.
Animals receiving the combination of JNJ-42153605 and scopolamine (n=433) almost always travelled a distance of less than 1500 cm (<1500 cm) (only 2.5% of the control rats travelled a distance of more than 1500 cm (>1500 cm)). On the other hand, animals challenged with scopolamine alone (n=215) always travelled a total distance of more than 1500 cm (>1500 cm) and almost always (in 95.8% of the rats) a distance of more than 4400 cm (>4400 cm). […] For reversal of the inhibitory effect of JNJ-42153605 on the scopolamine-induced hyperlocomotion, the following all-or-none criteria were adopted: (1) reversal: total distance >1500 cm.

human mGlu2 receptor = biological target: T1, human mGlu2 receptor (Homo sapiens, UniProt Q14416); test: [35S]GTPγS binding assay (mGluR2 negative allosteric modulation, glutamate ~EC80 60 μM); format: biochemical; details: for Emax: read-out: GTPγS-hmGluR2 anGT Emax; for IC50: glutamate ~EC80 (60 μM), pIC50 = −log IC50 (M)
T1 construct: expressed in transfected cells; host or cells: CHO cells
Experimental: 1) [^35S]GTPγS Binding Assay
[^35S]GTPγS Binding Assay
Total reaction volume was 200 μl. […] Membrane-bound radioactivity was counted in a Topcount.

[1] = maximal % inhibition relative to the control glutamate response (EC80 glutamate)
[2] = membranes from CHO cells transfected with human mGlu2 receptor, read-out: GTPγS-hmGluR2 anGT pIC50 (converted)
[3] = GTPγS-hmGluR2 anGT pIC50, membranes from CHO cells transfected with human mGlu2 receptor
[4] = historical solvent-pretreated control rats, first 30 min

T1 sequence (Q14416 19-872): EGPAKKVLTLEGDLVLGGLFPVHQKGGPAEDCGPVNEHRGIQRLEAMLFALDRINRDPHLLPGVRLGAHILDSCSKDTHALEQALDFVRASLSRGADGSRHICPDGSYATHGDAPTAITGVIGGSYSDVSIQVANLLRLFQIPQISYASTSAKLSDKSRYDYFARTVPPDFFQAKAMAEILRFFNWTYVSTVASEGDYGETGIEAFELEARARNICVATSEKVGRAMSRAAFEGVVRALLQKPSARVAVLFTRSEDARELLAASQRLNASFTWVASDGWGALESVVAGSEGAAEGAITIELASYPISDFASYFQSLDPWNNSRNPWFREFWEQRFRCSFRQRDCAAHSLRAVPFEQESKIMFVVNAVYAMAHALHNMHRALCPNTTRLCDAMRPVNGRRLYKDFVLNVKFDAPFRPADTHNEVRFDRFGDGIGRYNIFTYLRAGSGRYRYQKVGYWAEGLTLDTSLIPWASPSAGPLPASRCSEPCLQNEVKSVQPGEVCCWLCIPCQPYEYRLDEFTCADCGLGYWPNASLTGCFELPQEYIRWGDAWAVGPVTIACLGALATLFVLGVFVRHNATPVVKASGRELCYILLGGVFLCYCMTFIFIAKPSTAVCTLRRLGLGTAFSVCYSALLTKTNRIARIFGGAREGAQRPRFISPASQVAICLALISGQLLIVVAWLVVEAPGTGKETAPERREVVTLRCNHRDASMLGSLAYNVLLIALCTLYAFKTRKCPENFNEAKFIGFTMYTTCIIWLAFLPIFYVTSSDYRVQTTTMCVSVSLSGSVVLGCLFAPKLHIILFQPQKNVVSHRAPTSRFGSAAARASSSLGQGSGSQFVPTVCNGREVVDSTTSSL

SMILES | Emax (human mGlu2 receptor; [1]) [%] | IC50 (human mGlu2 receptor; [2]) [M] | melting point [°C] | GTPγS-hmGluR2 anGT Emax (human mGlu2 receptor; [1]) [%] | ED50 (rats) [mg/kg] | IC50 (human mGlu2 receptor; [3]) [M] | Emax (human mGlu2 receptor) [%] | Rats with total distance >1500 cm (%) (rats; [4]) | Rats with total distance >4400 cm (%) (rats; [4]) | Total distance travelled, median (cm) (rats; historical solvent-pretreated control rats, first 30 min, scopolamine 0.16 mg/kg i.v., JNJ-42153605 20 mg/kg i.v.)
COc1ccnc(N)c1C(=O)Nc1cnn2c1C(=O)N(c1ccc(C(F)(F)F)cc1)C[C@@H]2C (racemic) [Co. No. 193] | 106 | 2.88e-09 | 248.21 | – | > 0.63 | – | – | – | – | –
C[C@H]1CN(c2ccc(C(F)(F)F)cc2)C(=O)c2c(NC(=O)c3cccnc3NCCO)cnn21 (racemic) [Co. No. 213] | 103 | 1.02e-09 | 168.55 | – | 1.12 | – | – | – | – | –
C[C@H]1CN(c2ccc(C(F)(F)F)c(Cl)c2)C(=O)c2c(NC(=O)c3cccnc3NCCO)cnn21 (racemic) [Co. No. 214] | 112 | 5.25e-10 | – | – | 0.32 | – | – | – | – | –
C[C@H]1CN(c2ccc(Cl)c(Cl)c2)C(=O)c2c(NC(=O)c3ccc(N)nc3)cnn21 [Co. No. 3] | 110 | 1.62e-09 | 189.94 | – | 0.32 | – | – | – | – | –
C[C@H]1CN(c2ccc(C(F)F)c(Cl)c2)C(=O)c2c(NC(=O)c3ccc(N)nc3)cnn21 [Co. No. 6] | 114 | – | 177 | – | > 2.5 | – | – | – | – | –
COCc1cc(N2C[C@H](C)n3ncc(NC(=O)c4ccc(N)nc4)c3C2=O)ccc1C(F)(F)F [Co. No. 22] | 111 | 4.79e-09 | 213.77 | – | > 2.5 | – | – | – | – | –
COc1cncc(C(=O)Nc2cnn3c2C(=O)N(c2ccc(C(F)(F)F)cc2)C[C@@H]3C)c1 [Co. No. 32] | 112 | 7.41e-09 | 174.59 | – | 1.26 | – | – | – | – | –
Cc1cc(C(=O)Nc2cnn3c2C(=O)N(c2ccc(C(F)(F)F)cc2)C[C@@H]3C)nc(N)n1 [Co. No. 180] | 107 | 4.37e-08 | 265.47 | – | – | – | – | – | – | –
C[C@H]1CN(c2ccc(C(F)(F)F)cc2)C(=O)c2c(NC(=O)C3CCOCC3)cnn21 [Co. No. 186] | 106 | 7.08e-07 | 142.94 | – | – | – | – | – | – | –
O=C(Nc1cnn2c1C(=O)N(c1ccc(C(F)(F)F)cc1)CC2)c1cccnc1 [Co. No. 190] | 102 | 1.07e-06 | 162.12 | – | – | – | – | – | – | –
C[C@H]1CN(c2ccc(OC(F)(F)F)c(Cl)c2)C(=O)c2c(NC(=O)c3cccnc3)cnn21 [Co. No. 195] | 105 | 1.58e-09 | 181.21 | – | – | – | – | – | – | –
C[C@H]1CN(c2ccc(C(F)(F)F)cc2)C(=O)c2c(NC(=O)c3cccc(S(=O)(=O)F)c3)cnn21 [Co. No. 217] | – | – | 161.88 | – | – | 1.07e-08 | 110 | – | – | –
C[C@H]1CN(c2ccc(C(F)(F)F)cc2)C(=O)c2c(NC(=O)c3ccc(S(=O)(=O)F)cc3)cnn21 [Co. No. 218] | – | – | 163.64 | – | – | 4.37e-08 | 112 | – | – | –
C[C@H]1CN(c2ccc(C(F)(F)F)cc2)C(=O)c2c(NC(=O)c3cncc(F)n3)cnn21 [Co. No. 219, 6-fluoro-N-[(7S)-7-methyl-4-oxo-5-[4-(trifluoromethyl)phenyl]-6,7-dihydropyrazolo[1,5-a]pyrazin-3-yl]pyrazine-2-carboxamide] | 107 | 3.31e-09 | 183.54 | – | – | – | – | – | – | –
CN1[C@@H]2C[C@@H](OC(=O)[C@H](CO)c3ccccc3)C[C@H]1[C@@H]1O[C@@H]12 [Scopolamine, scopolamine, reference compound] | – | – | – | – | – | – | – | 100 | 95.8 | 7246

Now from value to molecule, other results behind:

Emax (human mGlu2 receptor; [1]) [%] | IC50 (human mGlu2 receptor; [2]) [M] | melting point [°C] | GTPγS-hmGluR2 anGT Emax (human mGlu2 receptor; [1]) [%] | SMILES | ED50 (rats) [mg/kg] | IC50 (human mGlu2 receptor; [3]) [M] | Emax (human mGlu2 receptor) [%] | Rats with total distance >1500 cm (%) (rats; [4]) | Rats with total distance >4400 cm (%) (rats; [4]) | Total distance travelled, median (cm) (rats; historical solvent-pretreated control rats, first 30 min, scopolamine 0.16 mg/kg i.v., JNJ-42153605 20 mg/kg i.v.)
110 | 2.69e-08 | 177.39 | – | Cc1ccnc(N)c1C(=O)Nc1cnn2c1C(=O)N(c1ccc(C(F)(F)F)cc1)C[C@@H]2C (racemic) [Co. No. 192] | > 0.63 | – | – | – | – | –
105 | 1.32e-09 | 161.54 | – | C[C@H]1CN(c2ccc(C(F)(F)F)c(Cl)c2)C(=O)c2c(NC(=O)c3ccccc3)cnn21 [Co. No. 2] | > 2.5 | – | – | – | – | –
104 | 2.57e-09 | 241.79 | – | C[C@H]1CN(c2ccc(C(F)(F)F)cc2)C(=O)c2c(NC(=O)c3ccccc3F)cnn21 [Co. No. 11] | > 2.5 | – | – | – | – | –
102 | 2.75e-09 | 161.84 | – | C[C@H]1CN(c2ccc(C(F)(F)F)cc2)C(=O)c2c(NC(=O)c3cccc(F)c3)cnn21 [Co. No. 14] | > 2.5 | – | – | – | – | –
111 | 3.24e-09 | 213.94 | – | C[C@H]1CN(c2ccc(C(F)(F)F)cc2)C(=O)c2c(NC(=O)c3nccs3)cnn21 [Co. No. 15] | > 2.5 | – | – | – | – | –
108 | 3.39e-09 | 201.48 | – | C[C@H]1CN(c2ccc(C(F)(F)F)cc2)C(=O)c2c(NC(=O)c3ccccc3)cnn21 [Co. No. 16] | > 2.5 | – | – | – | – | –
117 | 4.27e-09 | – | – | C[C@H]1CN(c2ccc(Cl)c(OC(F)F)c2)C(=O)c2c(NC(=O)c3ccc(N)nc3)cnn21 [Co. No. 18] | > 2.5 | – | – | – | – | –
– | 4.57e-09 | 190 | 103 | COc1cccc(C(=O)Nc2cnn3c2C(=O)N(c2ccc(C(F)(F)F)cc2)C[C@@H]3C)n1 [Co. No. 20] | > 2.5 | – | – | – | – | –
106 | 6.46e-09 | 216.96 | – | C[C@H]1CN(c2ccc(C(F)(F)F)c(C#N)c2)C(=O)c2c(NC(=O)c3ccc(N)nc3)cnn21 [Co. No. 26] | > 2.5 | – | – | – | – | –
106 | 6.61e-09 | 136.91 | – | COc1cccc(C(=O)Nc2cnn3c2C(=O)N(c2ccc(C(F)(F)F)cc2)C[C@@H]3C)c1 [Co. No. 27] | > 2.5 | – | – | – | – | –
100 | 6.92e-09 | 145.1 | – | Cc1cc(C(=O)Nc2cnn3c2C(=O)N(c2ccc(C(F)(F)F)cc2)C[C@@H]3C)ccn1 [Co. No. 29, 2-Methyl-N-[(7S)-7-methyl-4-oxo-5-[4-(trifluoromethyl)phenyl]-6,7-dihydropyrazolo[1,5-a]pyrazin-3-yl]pyridine-4-carboxamide] | > 2.5 | – | – | – | – | –
113 | 7.08e-09 | 160.03 | – | COCc1cccc(C(=O)Nc2cnn3c2C(=O)N(c2ccc(C(F)(F)F)cc2)C[C@@H]3C)c1 [Co. No. 30] | > 2.5 | – | – | – | – | –
116 | 8.32e-09 | 214.97 | – | Cc1cccc(C(=O)Nc2cnn3c2C(=O)N(c2ccc(C(F)(F)F)cc2)C[C@@H]3C)n1 [Co. No. 34] | > 2.5 | – | – | – | – | –
110 | 8.91e-09 | – | – | C[C@H]1CN(c2ccc(Cl)cc2)C(=O)c2c(NC(=O)c3ccc(N)nc3)cnn21 [Co. No. 36] | 0.5 | – | – | – | – | –
106 | 2.57e-09 | 226.06 | – | Cc1cc(N)ncc1C(=O)Nc1cnn2c1C(=O)N(c1ccc(C(F)(F)F)cc1)C[C@@H]2C [Co. No. 163, 6-Amino-4-methyl-N-[(7S)-7-methyl-4-oxo-5-[4-(trifluoromethyl)phenyl]-6,7-dihydropyrazolo[1,5-a]pyrazin-3-yl]pyridine-3-carboxamide] | – | – | – | – | – | –
108 | 1.35e-09 | 233.32 | – | Cc1cc(N)ncc1C(=O)Nc1cnn2c1C(=O)N(c1ccc(C(F)(F)F)c(Cl)c1)C[C@@H]2C [Co. No. 164] | – | – | – | – | – | –
106 | 1.66e-09 | 192.47 | – | Cc1cc(C(=O)Nc2cnn3c2C(=O)N(c2ccc(C(F)(F)F)c(Cl)c2)C[C@@H]3C)cc(N)n1 [Co. No. 174] | – | – | – | – | – | –
105 | 2.45e-07 | 152.2 | – | C[C@@H]1CN(c2ccc(C(F)(F)F)cc2)C(=O)c2c(NC(=O)c3cccnc3)cnn21 [Co. No. 188] | – | – | – | – | – | –
108 | 4.9e-09 | – | – | Cc1cnc(N)c(C(=O)Nc2cnn3c2C(=O)N(c2ccc(Cl)cc2)C[C@@H]3C)c1 [Co. No. 201] | > 0.63 | – | – | – | – | –
